Here are results for one compound from article PMC3923730 (Journal of Translational Medicine, 2014).

In data set [1] the test system is isolated rat heart. Kind of data set: Langendorff isolated rat heart ischemia-reperfusion, hemodynamic measurements. As to conditions: 1 μM, vs 0.03% HPBCD. Here is the method: Ischemic reperfusion of Langendorff isolated rat heart was performed as previously described. Rat hearts were perfused either with TRO40303 1 μM (0.5 mg/mL stock in 30% HPBCD diluted 1000X in Krebs-Henseleit (KH) buffer (n = 29)) or vehicle (30% HPBCD diluted 1000X in KH buffer (n = 24)) during 30 min equilibration, 10 min low flow ischemia, and 60 min reperfusion following 30 min of total ischemia. During the reperfusion period, the following parameters were monitored via a water-filled latex balloon inserted into the left ventricle: left ventricular end diastolic pressure (LVEDP); left ventricular developed pressure (Pdev); its first derivative (dP/dt) and heart rate. Coronary flow was measured by collecting the coronary perfusate over 1 min. The rate-pressure product (RPP) was calculated as the product of Pdev and heart rate. Some of the hearts from this main experiment were used to assess ascorbate, reactive oxygen species (ROS) and lipid peroxidation as described below.

Data set [2] can be described thus: Pharmacokinetic based allometry to human. Conditions: allometric scaling, body weights 50-115 kg, 95% CI. Here is the method:
Pharmacokinetic based allometry (natural logarithm (ln) transformation) was performed using available pharmacokinetic data (not shown) from various animal species and was used to estimate clearance (CL) and the initial volume of distribution (V1 = Dose/C0; C0 defined as the extrapolated plasma concentration at time zero) in human. Animals had received a single i.v. bolus dose of TRO40303 administered under lipid-based formulations (Intralipid® and liposomes) in rats and pigs or under cremophor EL®/ethanol/saline formulation in dogs and monkeys. The pharmacokinetic parameters were assessed from the mean (for rodents) or individual TRO40303 plasma concentration versus time profiles using a non-compartmental approach “Log Linear Method” (Kinetica™, version 4.4.1). The ln of the CL and the ln of V1 were each plotted against the ln of the animals’ body weight. Finally, using this relationship, the human CL and V1 were estimated based on the human body weight ranging from 50 to 115 kg.

Molecules are shown by their SMILES.

Turning to `CC(C)CCC[C@@H](C)[C@H]1CC[C@H]2[C@@H]3CC/C(=N\O)[C@](C)(CCCO)[C@H]3CC[C@]12C` [TRO40303, 3,5-seco-4-nor-cholestan-5-one oxime-3-ol], the “recovery of LVEDP at reperfusion” value in data set [1] (60 min reperfusion after 30 min total ischemia) was “greatly and significantly improved”. In data set [1] (reperfusion), the “contractility (dP/dt)” value is reported as “improved”, the “developed pressure (Pdev)” value was “improved”, the “rate-pressure product (RPP)” value was “significantly higher” and the “recovery of coronary flow” value is listed as “better recovery”. In data set [2], the “predicted human CL” value is 0.883 to 3.97 mL/min/kg and the “predicted human V1” value is 0.089 to 0.741 L/kg.
